Holding throughout (type): binding
Assay [1] addresses T1, BAZ2B PHD (Homo sapiens, UniProt Q9UIF8).
T1 construct: The small PHDs (∼6.5 kDa) of both BAZ2A and BAZ2B; made in house
T1 sequence (Q9UIF8 1931-1981 limits assumed): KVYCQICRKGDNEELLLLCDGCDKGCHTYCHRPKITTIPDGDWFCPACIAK
In words: ITC, H3 peptides titrated into BAZ2B PHD (WT). The conditions noted are these: for effect on binding, in words: compared with H3 10-mer WT. As to the method: (§1) All calorimetric experiments were performed on a MicroCal iTC200 microcalorimeter (GE Healthcare) at 25°C in a buffer containing 20 mM HEPES at a pH of 8, 150 mM NaCl and 0.5 mM Tris(2-carboxyethyl) phosphine. All ITC experiments were carried out titrating peptide solutions (1.5–3 mM) into protein solutions (80–120 µM) loaded in the calorimeter cell, performing one first injection of 0.4 µl followed by 19 injections of 2 µl. The data were analyzed using the MicroCal™ software package subtracting the data from an independent titration of peptide into buffer to account for heat of dilution, and then fitted using a single-binding site model. Protein concentration was determined by measuring absorbance at 280 nm using the following extinction coefficients: BAZ2A PHD ε280 = 6990 M^−1 cm^−1 and BAZ2B PHD ε280 = 8480 M^−1 cm^−1. Lyophilized peptides were weighted and dissolved in an appropriate volume of buffer to obtain the desired concentration.

The target of assay [2] is T2, BAZ2A PHD (Homo sapiens, UniProt Q9UIF9).
T2 construct: The small PHDs (∼6.5 kDa) of both BAZ2A and BAZ2B; made in house
T2 sequence (Q9UIF9 1676-1726 limits assumed): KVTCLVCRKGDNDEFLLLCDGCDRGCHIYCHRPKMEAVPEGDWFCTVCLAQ
In words: ITC, H3 peptides titrated into BAZ2A PHD (WT). The conditions noted are these: for effect on binding, in words: compared with H3 10-mer WT or the peptide named in the words. As to the method: as §1
On the technique in general: Isothermal titration calorimetry measures the heat released or taken up as one component is titrated into another.

Assay [3] deals with T3, BAZ2A PHD E1689K (Homo sapiens, UniProt Q9UIF9, E1689K).
T3 construct: Mutations were introduced into BAZ2A/B PHD fingers by polymerase chain reaction (PCR) amplification of the original construct; made in house
T3 sequence (Q9UIF9 1676-1726 E1689K limits assumed): T2 sequence (Q9UIF9 1676-1726 limits assumed) with E14K
Description: ITC, H3 10-mer into BAZ2A PHD E1689K mutant. The conditions noted are these: ITC 25°C, duplicate, mean ± s.e.m.; SEM. The procedure: (§2) Mutations were introduced into BAZ2A/B PHD fingers by polymerase chain reaction (PCR) amplification of the original construct using Phusion DNA Polymerase (Thermo Fisher Scientific) and a specific pair of primers for each mutation (Supplementary Table S4). The PCR amplification product was incubated with Dpn I (New England BioLabs) for 1 h at 37°C to digest the parental DNA strands and then used to transform Escherichia coli DH5α cells. Transformed cells were grown on lysogeny broth (LB) agar plates supplemented with 100 µg/ml ampicillin for 16 h at 37°C. Single colonies were picked to inoculate 5 ml of LB plus 100 µg/ml ampicillin and grown for 16 h at 37°C. […]
(§3) All calorimetric experiments were performed on a MicroCal iTC200 microcalorimeter (GE Healthcare) at 25°C in a buffer containing 20 mM HEPES at a pH of 8, 150 mM NaCl and 0.5 mM Tris(2-carboxyethyl) phosphine. […] The data were analyzed using the MicroCal™ software package subtracting the data from an independent titration of peptide into buffer to account for heat of dilution, and then fitted using a single-binding site model. Protein concentration was determined by measuring absorbance at 280 nm using the following extinction coefficients: BAZ2A PHD ε280 = 6990 M^−1 cm^−1 and BAZ2B PHD ε280 = 8480 M^−1 cm^−1. […]

Assay [4] addresses T4, BAZ2B PHD E1944Q (Homo sapiens, UniProt Q9UIF8, E1944Q).
T4 construct: Mutations were introduced into BAZ2A/B PHD fingers by polymerase chain reaction (PCR) amplification of the original construct; made in house
T4 sequence (Q9UIF8 1931-1981 E1944Q limits assumed): T1 sequence (Q9UIF8 1931-1981 limits assumed) with E14Q
Description: ITC, H3 10-mer into BAZ2B PHD E1944Q mutant. The conditions noted are these: ITC 25°C, triplicate, mean ± s.e.m.; N fixed to 1 in fit; SEM. The procedure:
as §2, §3

The target in assay [5] is T5, BAZ2A PHD D1688N/E1689Q (Homo sapiens, UniProt Q9UIF9, D1688N/E1689Q).
T5 construct: Mutations were introduced into BAZ2A/B PHD fingers by polymerase chain reaction (PCR) amplification of the original construct; made in house
T5 sequence (Q9UIF9 1676-1726 D1688N/E1689Q limits assumed): T2 sequence (Q9UIF9 1676-1726 limits assumed) with D13N, E14Q
Description: ITC, H3 10-mer into BAZ2A PHD D1688N/E1689Q double mutant. As to conditions: ITC 25°C, triplicate, mean ± s.e.m.; N fixed to 1 in fit; SEM. The procedure: as §2, §3

The target in assay [6] is T6, BAZ2A PHD E1689Q (Homo sapiens, UniProt Q9UIF9, E1689Q).
T6 construct: Mutations were introduced into BAZ2A/B PHD fingers by polymerase chain reaction (PCR) amplification of the original construct; made in house
T6 sequence (Q9UIF9 1676-1726 E1689Q limits assumed): T2 sequence (Q9UIF9 1676-1726 limits assumed) with E14Q
In words: ITC, H3 10-mer into BAZ2A PHD E1689Q mutant. The conditions noted are these: ITC 25°C, triplicate, mean ± s.e.m.; SEM. The procedure:
as §2, §3

In assay [7] the target is T7, BAZ2B PHD E1944K (Homo sapiens, UniProt Q9UIF8, E1944K).
T7 construct: Mutations were introduced into BAZ2A/B PHD fingers by polymerase chain reaction (PCR) amplification of the original construct; made in house
T7 sequence (Q9UIF8 1931-1981 E1944K limits assumed): T1 sequence (Q9UIF8 1931-1981 limits assumed) with E14K
In words: ITC, H3 10-mer into BAZ2B PHD E1944K mutant. As to conditions: ITC 25°C. As to the method: as §2, §3

The mark [8] stands for this setting: ITC, 25°C, 20 mM HEPES pH 8, 150 mM NaCl, 0.5 mM TCEP, peptide 1.5–3 mM into protein 80–120 µM, single-site fit, error from fit (Table 2), read-out: KD.
Setting [9] is: KD, ITC, 25°C, 20 mM HEPES pH 8, 150 mM NaCl, 0.5 mM TCEP, peptide 1.5–3 mM into protein 80–120 µM, single-site fit, error from fit (Table 2).

Positions count from the first letter of the chain named. Read-outs that look alike come from different tables or passages of the source. Residues, ends and D or L forms follow the SMILES beside them. No end group written: not given here. Bounds are passed on as bounds.

Broadly, the Kd is a measure of binding affinity in units of concentration. Consider ARTGGTARKS-NH2 [ARTGGTARKS], for which the Kd in assay [1] (setting [8]) was found to be 166 ± 8 µM; in assay [2] (setting [8]) it was 143 ± 7 µM.
For `C[C@H](N)C(=O)N[C@@H](CCCNC(=N)N)C(=O)N[C@H](C(=O)N[C@@H](C)C(N)=O)[C@@H](C)O` [ARTA] (H-ARTA-NH2), the Kd in assay [2] (setting [8]) is 56 ± 2 µM.
`C[C@H](N)C(=O)N[C@@H](CCCNC(=N)N)C(=O)N[C@H](C(=O)N[C@@H](CCCCN)C(=O)N[C@@H](C)C(=O)N[C@H](C(=O)N[C@@H](C)C(=O)N[C@@H](CCCNC(=N)N)C(=O)N[C@@H](CCCCN)C(=O)N[C@@H](CO)C(N)=O)[C@@H](C)O)[C@@H](C)O` [ARTKATARKS]: the Kd in assay [1] (setting [8]) came out at 7 ± 0.2 µM; in assay [2] (setting [8]), 9.3 ± 0.2 µM.
`C[C@H](N)C(=O)N[C@@H](CCCNC(=N)N)C(=O)N[C@H](C(=O)N[C@@H](CCCCN)C(=O)N[C@@H](CCC(N)=O)C(=O)N[C@H](C(=O)N[C@@H](C)C(=O)N[C@@H](CCCNC(=N)N)C(=O)N[C@@H](CCCCN)C(=O)N[C@@H](CO)C(N)=O)[C@@H](C)O)[C@@H](C)O` [ARTKQTARKS]: the Kd is 47 ± 2 µM in assay [1] (KD, BAZ2B PHD wt, ITC 25°C, triplicate, mean ± s.e.m. (Table 3), SEM); 40 ± 0.5 µM in assay [1] (setting [9]); 48 ± 2 µM in assay [2] (KD, BAZ2A PHD wt, ITC 25°C, triplicate, mean ± s.e.m. (Table 3), SEM); 51 ± 2 µM in assay [2] (setting [9]); 116 ± 6 µM in assay [3]; 660 ± 60 µM in assay [4]. For the same compound, the Kd in assay [5] is 810 ± 50 µM; in assay [6], 83 ± 7 µM; in assay [7], greater than 1000 µM. In addition, in assay [7], the KD entry is reported as “completely abrogated binding”.
On to ARTAATARKS-NH2 [ARTAATARKS], for which the results for the Kd in assay [1] (setting [8]) and in assay [2] (setting [8]) were 2.6 ± 0.1 µM and 12.1 ± 0.3 µM, respectively.
In the same order, the values of `C[C@H](N)C(=O)N[C@@H](CCCNC(=N)N)C(=O)N[C@H](C(=O)N[C@@H](CCCCN)C(=O)N[C@@H](CCC(N)=O)C(N)=O)[C@@H](C)O` [ARTKQ] are 190 ± 25 µM and 210 ± 30 µM.
For `C[C@H](N)C(=O)N[C@@H](CCCNC(=N)N)C(=O)N[C@H](C(=O)N[C@@H](CCCCN)C(=O)N[C@@H](CCC(N)=O)C(=O)N[C@@H](C)C(=O)N[C@@H](C)C(=O)N[C@@H](CCCNC(=N)N)C(=O)N[C@@H](CCCCN)C(=O)N[C@@H](CO)C(N)=O)[C@@H](C)O` [ARTKQAARKS], the Kd is 44.6 ± 0.8 µM in assay [1] (setting [8]) and 55 ± 2 µM in assay [2] (setting [8]).
Regarding `C[C@H](N)C(=O)N[C@@H](CCCNC(=N)N)C(=O)N[C@H](C(=O)N[C@@H](CCCCN)C(N)=O)[C@@H](C)O` [ARTK] (H-ARTK-NH2), in assay [2] (setting [8]), the Kd was determined as 100 ± 4 µM.
Turning to `C[C@H](N)C(=O)N[C@@H](CCCNC(=N)N)C(=O)N[C@H](C(=O)N[C@@H](C)C(=O)N[C@@H](CCC(N)=O)C(=O)N[C@H](C(=O)N[C@@H](C)C(=O)N[C@@H](CCCNC(=N)N)C(=O)N[C@@H](CCCCN)C(=O)N[C@@H](CO)C(N)=O)[C@@H](C)O)[C@@H](C)O` [ARTAQTARKS], the figures for the Kd in assay [1] (setting [8]) and in assay [2] (setting [8]) were 8.5 ± 0.2 µM and 42 ± 2 µM, respectively.
In the case of ARAKQTARKS-NH2 [ARAKQTARKS], the Kd in assay [1] (setting [8]) is greater than 5000 µM. The “effect on binding, in words” value in assay [1] (ITC) and in assay [2] (ITC) was “abolished binding” in each case. Further, in assay [2] (ITC, 25°C, 20 mM HEPES pH 8, 150 mM NaCl, 0.5 mM TCEP, peptide 1.5–3 mM into protein 80–120 µM, single-site fit, error from fit (Table 2)), the KD entry is reported as “No binding”.
In the case of AATKQTARKS-NH2 [AATKQTARKS], the Kd in assay [1] (setting [8]) and in assay [2] (setting [8]) was greater than 1000 µM each time. Also, the “effect on binding, in words” value in assay [1] (ITC) and in assay [2] (ITC) was “abolished binding” each time.
